Data on one compound can be found in PMC5984089, “FBXW7 regulates DISC1 stability via the ubiquitin-proteosome system” (Molecular Psychiatry, 2017).

Each structure is given as a SMILES string. Residues, ends and D or L forms follow the SMILES beside them. *: point of attachment. Cbz = O=C(OCc1ccccc1)*

The test system of the test is DISC1, neural progenitors derived from patients carrying a 4-bp deletion in the DISC1 gene. Briefly: DISC1 protein level in patient iPS-derived neural progenitors (DISC1 frameshift, 4-bp deletion), western blot. The class given is cell-based, human. The source says: All iPS derived neural progenitors were provided by Pfizer Neuroscience (Cambridge, MA, USA). The iPS cell lines D2 and D3 and family control cell line C1 were generated using a non-integrated approach by Dr Hongjun Song at Johns Hopkins University and cultured as described previously.[8] The Detroit iPS cell line was generated by Dr S. Engle at Pfizer Neuroscience. Detroit 551 fibroblasts were obtained from ATCC (CCL-110) and maintained in Knockout DMEM (Life Technologies 10829-018), 15% FBS (Life Technologies), 1x Non-essential amino acids (Life Technologies 11140-050), 2 mM L-glutamine (Life Technologies 25030-081), 1x Gentamicin (Life Technologies 15710-072), 0.1 mM β-mercaptoethanol (Sigma M-7522). The cells were reprogrammed with individual lentiviruses expressing c-MYC, KLF4, SOX2, OCT3/4, NANOG, and LIN28. One colony, Detroit 551-3, with ES-like morphology, high expression of pluripotency markers (for example, OCT3/4, TRA-1-60, TRA-1-81, SSEA4), a normal karyotype, […] the ability to form all three germ layers in a teratoma assay was used in all subsequent experiments. […]
For orientation: A western blot detects proteins with antibodies after separation by electrophoresis.

For the compound `CC(C)C[C@@H](C=O)NC(=O)[C@H](CC(C)C)NC(=O)[C@H](CC(C)C)NC(=O)OCc1ccccc1` [MG132] (Cbz-Leu-Leu-Leu-aldehyde), the “DISC1 protein level in NPs from D2-1 (patient) iPS cells, proteasomal inhibition” value (MG132 10 µM, day 18, up to 3 hours, n=2, western blot) is listed as “stabilization of DISC1 protein levels within first 30 min up to 3 hours”. In addition, where the note is “MG132, Supplementary Figure 10D”, the “DISC1 level in patient-derived NP cells after MG132” value is on record as “could be enhanced by MG132 treatment”.
